Tests used:
[1] = system: mice; test: Acute toxicity; type: in vivo; conditions: intravenous injection from tail vein, conscious mice, monitored for 3 days
Description: Reduction of toxicity by the introduction of sulfonic acid group and reduction thereof by conversion into sodium salt were studied.
Each test compound was dissolved in distilled water to give a compound solution. This solution was intravenously injected to the conscious mice from the tail vein. The mice were monitored for 3 days after the administration, and acute toxicity [LD50 (mg/kg body weight)] was estimated.

[2] = Partition coefficient (log Po/w) of n-butanol/water; type: physicochemical; conditions: n-butanol/water two-phase system
Description: The fluorescent contrast agent to be used in a living body should be particularly water soluble. […] For easy synthesis, the number of the sulfonic acid groups is not more than 10, preferably not more than 8. The improvement in the water solubility can be determined by measuring partition coefficient of each compound, which for example, may be measured in a two-phase system of butanol/water. More specifically, introduction of 3 or more sulfonic acid groups results in a partition coefficient log Po/w of n-butanol/water of not more than −1.00.

In the case of CC1(C)C(=CC=CC2=[N+](CCCS(=O)(=O)[O-])c3ccccc3C2(C)C)N(CCCS(=O)(=O)[O-])c2ccccc21.[Na+] [NK-1967], the LD50 [1] was 20 mg/kg body weight and the “log Po/w (butanol/water)” value [2] was 0.34.

Reference: patent US7488468B1, “Near infrared fluorescent contrast agent and fluorescence imaging” (Schering AG, priority 1998, dated 2009)
